{"source": "patent US5132299A", "about": "“11β-phenyl-4,9,15-estratrienes, their manufacture and pharmaceutical preparations containing same” (Schering Aktiengesellschaft, priority 1987, dated 1992)", "key": {"pregnant rats": {"test_system": "pregnant rats", "assay": "Abortive test with pregnant rats (antigestagenic effect)", "format": "in vivo, rat", "conditions": "for Abortion Rate n aborting/n treated rats: d5-d7 p.c., autopsy d9 p.c.; for abortive effect in words: dose of 0.3 mg, pregnant rats s.c.; for factor by which more effective than RU 486 (C) in the abortive test: pregnant rats, s.c.", "procedure": "The abortifacient activity was determined to define the antigestagenic effect. The tests were carried out on female rats with a weight of approx. 200 g. […] The date on which sperm are detected was considered the 1st day of pregnancy (=dl p.c.). The animals were treated with the substance to be tested or the solvent after nidation of the blastocysts from d5 p.c. to d7 p.c. The animals were killed on d9 p.c. and the uteri were checked for implants and points of resorption. Photos were made of all uteri. Lack of implants was considered as abortions. The test substances were dissolved in a mixture of benzylbenzoate and castor oil (ratio of 1:4). The vehicle volume per individual dose amounted to 0.2 ml. Treatment was subcutaneous (s.c.)."}, "[1]": {"test_system": "tyrosine amino-transferase (TAT) in RHC (Rat Hepatoma Cells)", "assay": "Antiglucocorticoid activity: tyrosine amino-transferase (TAT) induction in RHC cultures", "format": "cell-based", "conditions": "for EC (max): Rattus norvegicus, read-out: concentration of max. TAT activity (induction); for antiglucocorticoid activity as % of the activity of the standard compound RU 486 (C): TAT test in RHC, simultaneous treatment with corticoid", "procedure": "To identify the antiglucocorticoid activity, the effect of the substances in accordance with the invention on the tyrosine amino-transferase was determined. The test system is based on measurement of the activity of the liver enzyme tyrosine amino-transferase (TAT) in cultures of RHC (Rat Hepatoma Cells). The enzyme catalyzes the first step in the metabolism of tyrosine and can be induced by glucocorticoids both in the liver and in hepatoma cells. The activity is easy to measure in raw extracts (Granner and Tomkins, (1970) Meth. Enzymol. 15, 633). The enzyme converts the amino group of tyrosine to 2-oxoglutaric acid. Glutaminic acid and p-hydroxy-phenylpyruvate are formed. […] Its measured absorption lies at 331 nm. […] The activity can be stimulated by a factor of 4 to 6 above basal value. Simultaneous treatment with corticoid and antiglucocorticoid leads to a decrease in the TAT activity."}, "guinea pigs": {"test_system": "guinea pigs", "assay": "Abortive effect in guinea pigs", "format": "in vivo, guinea pig", "procedure": "The abortive effect of the substances in accordance with the invention (A) and (B) was also determined using guinea pigs as test animals.\nThe test results gained from guinea pigs permit more reliable predictions to be made on the abortive activity of the tested compound(s) to be expected in the case of humans than is permitted by the data gained with rats."}, "gestagen receptor": {"molecular_target": "T1, gestagen receptor (Oryctolagus cuniculus, UniProt P06186)", "T1 sequence (P06186 1-930)": "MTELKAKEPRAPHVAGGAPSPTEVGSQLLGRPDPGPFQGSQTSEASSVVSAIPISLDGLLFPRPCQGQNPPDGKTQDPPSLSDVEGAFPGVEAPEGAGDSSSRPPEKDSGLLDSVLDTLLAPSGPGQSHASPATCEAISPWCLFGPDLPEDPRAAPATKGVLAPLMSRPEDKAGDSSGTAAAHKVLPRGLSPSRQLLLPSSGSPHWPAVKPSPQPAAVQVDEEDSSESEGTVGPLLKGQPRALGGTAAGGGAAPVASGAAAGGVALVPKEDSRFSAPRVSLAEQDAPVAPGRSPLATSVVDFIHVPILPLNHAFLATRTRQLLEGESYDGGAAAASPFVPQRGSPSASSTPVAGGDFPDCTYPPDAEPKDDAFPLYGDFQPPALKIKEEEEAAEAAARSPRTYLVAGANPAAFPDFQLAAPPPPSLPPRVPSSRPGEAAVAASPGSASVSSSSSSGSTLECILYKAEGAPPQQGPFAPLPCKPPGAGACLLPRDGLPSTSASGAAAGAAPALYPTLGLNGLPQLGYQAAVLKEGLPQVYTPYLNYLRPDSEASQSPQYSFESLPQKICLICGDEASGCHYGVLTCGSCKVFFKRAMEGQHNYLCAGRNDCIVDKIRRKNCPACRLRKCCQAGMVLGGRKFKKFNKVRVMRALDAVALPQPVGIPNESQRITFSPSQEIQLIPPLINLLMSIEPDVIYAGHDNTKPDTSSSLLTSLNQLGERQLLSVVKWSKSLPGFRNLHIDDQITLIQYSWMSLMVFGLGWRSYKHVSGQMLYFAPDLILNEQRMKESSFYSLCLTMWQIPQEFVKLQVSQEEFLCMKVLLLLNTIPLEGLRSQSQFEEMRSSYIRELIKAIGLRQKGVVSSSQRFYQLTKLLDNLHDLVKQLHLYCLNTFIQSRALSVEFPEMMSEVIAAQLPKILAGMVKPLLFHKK", "assay": "Gestagen receptor binding test (3H-progesterone displacement, rabbit uterus cytosol)", "procedure": "The affinity of the compounds in accordance with the invention to the gestagen receptor is examined with the gestagen receptor binding test. In this test the displacement of the agonist by the antagonist is measured. Cytosol from rabbit uterus homogenate which contains the receptor molecule (a protein) is used in the test. This binds progesterone with high affinity and low capacity. When these receptors are charged with ^3 H-progesterone in the presence of the unlabeled substance to be tested, the extent to which the ^3 H-progesterone is displaced from the receptor depends on the concentration and binding affinity of the compound to be tested. After separation of the receptor-bound progesterone from the non-bound progesterone, the binding can be determined as a percentage and this value plotted against the log of the molar concentration of the test substance. Characteristic dosage-dependent displacement curves are obtained and the concentration of the test substance can be determined which is required to oust the reference substance […] from the receptor."}}, "data": [{"smiles": "CC#C[C@]1(O)CC[C@H]2[C@@H]3CCC4=CC(=O)CCC4=C3[C@@H](c3ccc(N(C)C)cc3)C[C@@]21C", "note": "[C, 11β-(4-dimethylaminophenyl)-17β-hydroxy-17α-(prop-1-inyl)-4,9,(10)-estradien-3-one, reference compound]", "values": [{"measurement": "Abortion Rate n aborting/n treated rats", "setting": "pregnant rats; 0.3 mg/animal/day s.c.", "value": "0/4"}, {"measurement": "Abortion Rate n aborting/n treated rats", "setting": "pregnant rats; 1.0 mg/animal/day s.c.", "value": "2/4"}, {"measurement": "Abortion Rate n aborting/n treated rats", "setting": "pregnant rats; 3.0 mg/animal/day s.c.", "value": "4/4"}]}, {"smiles": "C[C@]12CCC(=O)C=C1CC[C@@H]1[C@@H]2[C@@H](O)C[C@@]2(C)[C@H]1CC[C@]2(O)C(=O)CO", "note": "[cortisol, reference compound]", "values": [{"measurement": "EC (max)", "setting": "[1]", "value": 1, "unit": "µM"}]}, {"smiles": "CC#C[C@]1(O)CC[C@H]2[C@@H]3CCC4=CC(=O)CCC4=C3[C@@H](c3ccc(C(C)=O)cc3)C[C@@]21C", "note": "[D, 11β-(4-acetylphenyl)-17β-hydroxy-17α-(prop-1-inyl)-4,9-estradien-3-one, reference compound]", "values": [{"measurement": "Abortion Rate n aborting/n treated rats", "setting": "pregnant rats; 0.3 mg/animal/day s.c.", "value": "4/4"}, {"measurement": "Abortion Rate n aborting/n treated rats", "setting": "pregnant rats; 1.0 mg/animal/day s.c.", "value": "4/4"}, {"measurement": "Abortion Rate n aborting/n treated rats", "setting": "pregnant rats; 3.0 mg/animal/day s.c.", "value": "4/4"}]}, {"smiles": "CC#C[C@]1(O)C=C[C@H]2[C@@H]3CCC4=CC(=O)CCC4=C3[C@@H](c3ccc(C(C)=O)cc3)C[C@@]21C", "note": "[A, 11β-(4-acetylphenyl)-17β-hydroxy-17α-(prop-1-inyl)-4,9,15-estratrien-3-one]", "values": [{"measurement": "Abortion Rate n aborting/n treated rats", "setting": "pregnant rats; 0.3 mg/animal/day s.c.", "value": "4/4"}, {"measurement": "Abortion Rate n aborting/n treated rats", "setting": "pregnant rats; 1.0 mg/animal/day s.c.", "value": "4/4"}, {"measurement": "Abortion Rate n aborting/n treated rats", "setting": "pregnant rats; 3.0 mg/animal/day s.c.", "value": "4/4"}, {"measurement": "abortive effect in words", "setting": "pregnant rats", "value": "fully abortive"}, {"measurement": "factor by which more effective than RU 486 (C) in the abortive test", "setting": "pregnant rats", "value": 10}, {"measurement": "antiglucocorticoid activity as % of the activity of the standard compound RU 486 (C)", "setting": "[1]", "value": "20-50%"}, {"measurement": "abortifacient effect compared with compound (D)", "setting": "guinea pigs", "value": "strikingly higher abortifacient effect"}, {"measurement": "strength in the gestagen receptor binding test compared with standard compound (C)", "setting": "gestagen receptor", "value": "much stronger"}]}, {"smiles": "C[C@@H]1C[C@H]2[C@@H]3CCC4=CC(=O)C=C[C@]4(C)[C@@]3(F)[C@@H](O)C[C@]2(C)[C@@]1(O)C(=O)CO", "note": "[dexamethasone, reference compound]", "values": [{"measurement": "EC (max)", "setting": "[1]", "value": 0.1, "unit": "µM"}]}, {"smiles": "C#CC[C@]1(O)C=C[C@H]2[C@@H]3CCC4=CC(=O)CCC4=C3[C@@H](c3ccc(C(C)=O)cc3)C[C@@]21C", "note": "[B, 11β-(4-acetylphenyl)-17β-hydroxy-17α-(prop-2-inyl)-4,9,15-estratrien-3-one]", "values": [{"measurement": "Abortion Rate n aborting/n treated rats", "setting": "pregnant rats; 0.3 mg/animal/day s.c.", "value": "4/4"}, {"measurement": "Abortion Rate n aborting/n treated rats", "setting": "pregnant rats; 1.0 mg/animal/day s.c.", "value": "4/4"}, {"measurement": "Abortion Rate n aborting/n treated rats", "setting": "pregnant rats; 3.0 mg/animal/day s.c.", "value": "4/4"}, {"measurement": "abortive effect in words", "setting": "pregnant rats", "value": "fully abortive"}, {"measurement": "factor by which more effective than RU 486 (C) in the abortive test", "setting": "pregnant rats", "value": 10}, {"measurement": "antiglucocorticoid activity as % of the activity of the standard compound RU 486 (C)", "setting": "[1]", "value": "less than 1%"}, {"measurement": "abortifacient effect compared with compound (D)", "setting": "guinea pigs", "value": "strikingly higher abortifacient effect"}, {"measurement": "strength in the gestagen receptor binding test compared with standard compound (C)", "setting": "gestagen receptor", "value": "about the same strength"}]}]}
